Results as given in US8129366B2, “VLA-4 inhibitory drug” (Daiichi Sankyo Company, Limited, priority 2005, dated 2012).

Target: T1, hα4 and β1 integrins (Homo sapiens, UniProt P05556+P13612)
T1 construct: expressed in transfected cells; host or cells: CHO cells
Test: In vitro inhibition of binding between CHO cells expressing hα4 and β1 integrins and Eu3+-hVCAM-1 D1D7-IgG
Conditions: for Ki: CHO cells expressing hα4 and β1 integrins, Eu3+-hVCAM-1 D1D7-IgG ligand, without HSA; for IC50: in the presence of 3% human serum albumin (HSA final concentration 3%)
Protocol: CHO cells which forcibly expressed hα4 and β1 integrins through transfection thereof, were inoculated into a Costar 3599 plate (3×10^4 cells/100 μl/well), and cultured for two days. The cells in the wells were washed two times with buffer A*, and then Eu^3+-hVCAM-1 D1D7-IgG diluted with assay buffer** to 2 nM was added in an amount of 50 μl/well. The substance under test diluted with 26 DMSO-assay buffer (in the co-presence or absence of 6% human serum albumin) was added in an amount of 50 μl/well (adding separately diluted solution to the wells for performing Scatchard analysis), the contents were stirred for 5 minutes with a plate mixer, and then the plate was left to stand still for one hour at room temperature. The binding inhibitory activity in the presence of human serum albumin (HSA) was examined by diluting the specimen with 26 DMSO-assay buffer containing 6% HSA (SIGMA Corp., c/n A-1653), and adding the resultant (HSA final concentration 3%). After 30 to 60 minutes of the addition of specimen, the plate contents were washed 4 times with buffer A at 4° C., an enhancing reagent (DELFIA SA) was added in an amount of 100 μl/well, and the plate was shaken for 5 minutes using a plate mixer. Subsequently, the fluorescence intensity was measured with a time-resolved fluorometer (DELFIA Wallac). The IC50 of the substance under test (the concentration for 50% inhibition of the binding between CHO cells and Eu^3+-hVCAM-1 D1D7-IgG) was determined from the binding rate obtained from the calculating expression of [(FT−FNS)−(FI−FNS)]/[(FT−FNS)]×100. Here, FT represents the fluorescence intensity of a well not containing the substance under test; FNS represents the fluorescence intensity of a well not containing the substance under test and hVCAM-1 D1D7-IgG; and FI represents the fluorescence intensity of a well containing the substance under test. The Kd value which represents the strength of binding, and Bmax (maximum binding amount) were estimated to be in the range of 0.06 to 20 nM according to the Scatchard analysis method. The evaluation results of the Ki value of the substance under test, and of the IC50 value in the presence of 3% HSA are presented in Tables 2 to 7.
The Ki value was calculated according to the above-described expression. ([L] is the ligand concentration)
[* buffer A: 25 mM HEPES (pH 7.5), 150 mM NaCl, 1 mM Ca^2+, 1 mM Mg^2+, 4 mM Mn2+;
** assay buffer: 25 mM HEPES (pH=7.5), 150 mM NaCl, 1 mM Ca^2+, 1 mM Mg^2+, 4 mM Mn^2+, 0.1% BSA, 20 μM DTPA, with/without 6% ALBUMIN, HUMAN SERUM (C/N A-1653, SIGMA)]

T1 sequence (P13612 34-1032): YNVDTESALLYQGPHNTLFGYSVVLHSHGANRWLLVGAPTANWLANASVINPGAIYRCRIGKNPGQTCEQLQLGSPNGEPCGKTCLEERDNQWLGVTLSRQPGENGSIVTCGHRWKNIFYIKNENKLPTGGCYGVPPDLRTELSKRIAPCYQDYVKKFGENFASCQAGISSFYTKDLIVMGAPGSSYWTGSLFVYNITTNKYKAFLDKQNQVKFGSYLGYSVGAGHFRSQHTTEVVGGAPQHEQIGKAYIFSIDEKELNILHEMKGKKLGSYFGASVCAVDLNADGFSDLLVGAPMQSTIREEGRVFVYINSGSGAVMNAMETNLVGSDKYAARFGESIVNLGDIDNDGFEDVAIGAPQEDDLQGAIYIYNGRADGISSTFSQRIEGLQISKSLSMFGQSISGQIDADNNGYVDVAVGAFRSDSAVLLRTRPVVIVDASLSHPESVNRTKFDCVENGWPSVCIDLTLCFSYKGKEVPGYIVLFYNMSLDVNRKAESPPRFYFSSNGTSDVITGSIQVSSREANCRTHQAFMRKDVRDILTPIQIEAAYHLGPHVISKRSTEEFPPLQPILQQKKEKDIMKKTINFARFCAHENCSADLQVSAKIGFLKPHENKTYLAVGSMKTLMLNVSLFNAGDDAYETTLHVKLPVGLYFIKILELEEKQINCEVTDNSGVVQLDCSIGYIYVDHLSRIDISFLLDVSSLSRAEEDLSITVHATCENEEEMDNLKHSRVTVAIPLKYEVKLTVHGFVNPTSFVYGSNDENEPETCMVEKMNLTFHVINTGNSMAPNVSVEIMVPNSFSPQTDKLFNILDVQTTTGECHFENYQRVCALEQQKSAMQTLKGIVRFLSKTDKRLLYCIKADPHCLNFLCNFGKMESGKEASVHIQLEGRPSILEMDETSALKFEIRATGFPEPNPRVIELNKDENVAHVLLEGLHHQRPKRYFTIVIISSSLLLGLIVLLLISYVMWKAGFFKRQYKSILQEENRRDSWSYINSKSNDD
T1 sequence (P05556 21-798): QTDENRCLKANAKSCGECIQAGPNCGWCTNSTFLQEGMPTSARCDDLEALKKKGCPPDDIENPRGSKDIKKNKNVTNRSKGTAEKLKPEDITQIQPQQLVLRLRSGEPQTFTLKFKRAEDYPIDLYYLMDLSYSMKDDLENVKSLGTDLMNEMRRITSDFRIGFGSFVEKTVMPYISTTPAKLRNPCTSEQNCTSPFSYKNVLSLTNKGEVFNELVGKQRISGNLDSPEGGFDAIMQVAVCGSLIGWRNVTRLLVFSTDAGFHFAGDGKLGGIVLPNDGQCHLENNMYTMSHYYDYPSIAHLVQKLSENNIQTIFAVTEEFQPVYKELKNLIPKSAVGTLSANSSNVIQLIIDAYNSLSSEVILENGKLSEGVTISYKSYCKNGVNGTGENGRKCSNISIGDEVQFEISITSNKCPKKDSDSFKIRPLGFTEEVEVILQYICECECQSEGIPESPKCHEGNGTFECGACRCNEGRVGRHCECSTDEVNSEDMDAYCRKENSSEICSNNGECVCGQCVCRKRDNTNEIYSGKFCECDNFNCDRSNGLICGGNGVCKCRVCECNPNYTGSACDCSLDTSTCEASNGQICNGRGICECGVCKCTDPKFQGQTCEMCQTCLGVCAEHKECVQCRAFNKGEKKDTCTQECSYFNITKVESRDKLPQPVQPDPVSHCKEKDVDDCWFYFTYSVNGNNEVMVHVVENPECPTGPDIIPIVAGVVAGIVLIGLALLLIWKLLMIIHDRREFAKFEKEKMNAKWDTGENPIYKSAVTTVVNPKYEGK

Ki [nM] | IC50 [nM] | Structure (SMILES)
3 | 12 | C[C@@H]1CN([C@H]2C[C@@H](CO[C@H]3CC[C@H](C(=O)O)CC3)N(C(=O)Cc3cc(Cl)c(NC(=O)c4cn(C)c5ccccc45)cc3F)C2)C[C@H](C)O1 [Example 81, Trans-4-[1-[[5-chloro-2-fluoro-4-[(1-methyl-1H-indol-3-ylcarbonyl)amino]phenyl]acetyl]-(4S)-(cis-2,6-dimethylmorpholin-4-yl)-(2S)-pyrrolidinylmethoxy]cyclohexanecarboxylic acid]
2.4 | 18 | C[C@@H]1CN([C@H]2C[C@@H](CO[C@H]3CC[C@H](C(=O)O)CC3)N(C(=O)Cc3cc(Cl)c(NC(=O)c4csc5ccccc45)cc3Cl)C2)C[C@H](C)O1 [Example 82, Trans-4-[1-[[4-[(benzo[b]thiophen-3-ylcarbonyl)amino]-2,5-dichlorophenyl]acetyl]-(4S)-(cis-2,6-dimethylmorpholin-4-yl)-(2S)-pyrrolidinylmethoxy]cyclohexanecarboxylic acid]
2.4 | 23 | C[C@@H]1CN([C@H]2C[C@@H](CO[C@H]3CC[C@H](C(=O)O)CC3)N(C(=O)Cc3cc(Cl)c(NC(=O)c4coc5ccccc45)cc3F)C2)C[C@H](C)O1 [Example 84, Trans-4-[1-[[4-[(benzo[b]furan-3-ylcarbonyl)amino]-5-chloro-2-fluorophenyl]acetyl]-(4S)-(cis-2,6-dimethylmorpholin-4-yl)-(2S)-pyrrolidinylmethoxy]cyclohexanecarboxylic acid]
2 | 9.2 | C[C@@H]1CN([C@H]2C[C@@H](CO[C@H]3CC[C@H](C(=O)O)CC3)N(C(=O)Cc3ccc(NC(=O)c4cn(C)c5ccccc45)c(Cl)c3)C2)C[C@H](C)O1 [Example 85, Trans-4-[1-[[3-chloro-4-[(1-methyl-1H-indol-3-ylcarbonyl)amino]phenyl]acetyl]-(4S)-(cis-2,6-dimethylmorpholin-4-yl)-(2S)-pyrrolidinylmethoxy]cyclohexanecarboxylic acid]
0.96 | 2.3 | C[C@@H]1CN([C@H]2C[C@@H](CO[C@H]3CC[C@H](C(=O)O)CC3)N(C(=O)Cc3cc(Cl)c(NC(=O)c4c[nH]c5ccccc45)cc3Cl)C2)C[C@H](C)O1 [Example 89, Trans-4-[1-[[2,5-dichloro-4-[(1H-indol-3-ylcarbonyl)amino]phenyl]acetyl]-(4S)-(cis-2,6-dimethylmorpholin-4-yl)-(2S)-pyrrolidinylmethoxy]cyclohexanecarboxylic acid]
1.2 | 2.4 | C[C@@H]1CN([C@H]2C[C@@H](CO[C@H]3CC[C@H](C(=O)O)CC3)N(C(=O)Cc3cc(Cl)c(NC(=O)c4c[nH]c5ccccc45)cc3F)C2)C[C@H](C)O1 [Example 90, Trans-4-[1-[[5-chloro-2-fluoro-4-[(1H-indol-3-ylcarbonyl)amino]phenyl]acetyl]-(4S)-(cis-2,6-dimethylmorpholin-4-yl)-(2S)-pyrrolidinylmethoxy]cyclohexanecarboxylic acid]
2.4 | 81 | CC1CN([C@H]2C[C@@H](CO[C@H]3CC[C@H](C(=O)O)CC3)N(C(=O)Cc3cc(Cl)c(NC(=O)c4cn(C)c5ccccc45)cc3Cl)C2)CC(C)O1 (stereo partly drawn) [Example 91, Trans-4-[1-[[2,5-dichloro-4-[(1-methyl-1H-indol-3-ylcarbonyl)amino]phenyl]acetyl]-(4S)-(2,6-dimethylmorpholin-4-yl)-(2S)-pyrrolidinylmethoxy]cyclohexanecarboxylic acid]
1.2 | 10 | C[C@@H]1CN([C@H]2C[C@@H](CO[C@H]3CC[C@H](C(=O)O)CC3)N(C(=O)Cc3ccc(NC(=O)c4csc5ccccc45)c(Cl)c3)C2)C[C@H](C)O1 [Example 92, Trans-4-[1-[[4-[(benzo[b]thiophen-3-ylcarbonyl)amino]-3-chlorophenyl]acetyl]-(4S)-(cis-2,6-dimethylmorpholin-4-yl)-(2S)-pyrrolidinylmethoxy]cyclohexanecarboxylic acid]
